{
  "source": "ChEMBL document CHEMBL1221184",
  "about": "“Identifying off-target effects and hidden phenotypes of drugs in human cells” (Nat Chem Biol, 2006)",
  "key": {"PC-3 [1]": {"test_system": "PC-3", "assay": "Antiproliferative activity against human PC3 cells at 200 nM after 120 hrs by MTT assay relative to DMSO", "format": "functional"}, "PC-3 [2]": {"test_system": "PC-3", "assay": "Antiproliferative activity against human PC3 cells at 20 uM after 120 hrs by MTT assay relative to DMSO", "format": "functional"}, "PC-3 [3]": {"test_system": "PC-3", "assay": "Antiproliferative activity against human PC3 cells at 300 nM after 120 hrs by MTT assay relative to DMSO", "format": "functional"}, "[4]": {"biological_target": "Cyclin-dependent kinase 1 (Homo sapiens) (UniProt P06493)", "sequence (P06493 whole entry, looked up, the tested form may be a part)": "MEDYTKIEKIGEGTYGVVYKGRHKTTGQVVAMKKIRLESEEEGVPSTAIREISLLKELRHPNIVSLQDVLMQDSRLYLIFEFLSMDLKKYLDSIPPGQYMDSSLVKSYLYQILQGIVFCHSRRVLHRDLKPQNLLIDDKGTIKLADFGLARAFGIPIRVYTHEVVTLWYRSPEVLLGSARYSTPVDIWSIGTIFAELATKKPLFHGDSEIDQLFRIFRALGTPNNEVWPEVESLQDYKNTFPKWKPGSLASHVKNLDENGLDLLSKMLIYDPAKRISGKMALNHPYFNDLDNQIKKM", "assay": "Effect on Cdc2 expressed in HEK293 cells assessed as effect on Cdc2:Cdc25C interaction complexes in presence of camptothecin by EYFP and/or YFP Venus fragment based reporter gene assay", "format": "cell-based"}, "Cofilin-1 (Homo sapiens) [5]": {"biological_target": "Cofilin-1 (Homo sapiens) (UniProt P23528)", "sequence (P23528 whole entry, the tested form may be a part)": "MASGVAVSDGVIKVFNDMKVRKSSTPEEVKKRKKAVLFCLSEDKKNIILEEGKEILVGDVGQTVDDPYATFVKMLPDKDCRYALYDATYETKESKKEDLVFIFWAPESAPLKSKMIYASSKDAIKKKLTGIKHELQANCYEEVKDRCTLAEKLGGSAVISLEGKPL", "assay": "Effect on cofilin1 expressed in HEK293 cells assessed as effect on cofilin1; Limk2 interaction complexes in presence of camptothecin by EYFP and/or YFP Venus fragment based reporter gene assay", "format": "cell-based"}, "[6]": {"biological_target": "Cyclin-dependent kinase 1 (Homo sapiens) (UniProt P06493)", "assay": "Effect on Cdc2 expressed in HEK293 cells assessed as effect on Cdc2:Cdc25A interaction complexes in presence of camptothecin by EYFP and/or YFP Venus fragment based reporter gene assay", "format": "cell-based"}, "[7]": {"biological_target": "Cyclin-dependent kinase 1 (Homo sapiens) (UniProt P06493)", "assay": "Inhibition of Cdc2 expressed in HEK293 cells assessed as effect on Cdc2:Cdc25C interaction complexes in presence of camptothecin by EYFP and/or YFP Venus fragment based reporter gene assay", "format": "cell-based"}, "[8]": {"biological_target": "Transcription factor Jun (Homo sapiens) (UniProt P05412)", "sequence (P05412 whole entry)": "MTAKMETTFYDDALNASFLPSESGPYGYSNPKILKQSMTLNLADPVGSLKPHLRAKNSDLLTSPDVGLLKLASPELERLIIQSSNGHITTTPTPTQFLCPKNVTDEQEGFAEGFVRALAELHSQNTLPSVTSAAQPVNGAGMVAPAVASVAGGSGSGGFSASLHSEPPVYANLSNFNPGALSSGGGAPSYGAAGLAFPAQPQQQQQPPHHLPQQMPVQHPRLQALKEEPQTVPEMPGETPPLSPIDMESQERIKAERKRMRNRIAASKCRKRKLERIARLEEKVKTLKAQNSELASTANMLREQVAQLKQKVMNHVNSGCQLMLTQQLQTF", "assay": "Activation of c-Jun expressed in HEK293 cells assessed as induction of protein interaction with Pin1 by EYFP based reporter gene assay", "format": "cell-based"}, "[9]": {"biological_target": "Transcription factor Jun (Homo sapiens) (UniProt P05412)", "assay": "Inhibition of c-Jun expressed in HEK293 cells assessed as induction of protein interaction in presence of camptothecin with Pin1 by EYFP based reporter gene assay", "format": "cell-based"}, "HEK293 [10]": {"test_system": "HEK293", "assay": "Inhibition of proteasome expressed in HEK293 cells assessed as effect on p53-Chk1 interaction complexes by EYFP and/or YFP Venus fragment based reporter gene assay"}, "HEK293 [11]": {"test_system": "HEK293", "assay": "Inhibition of proteasome expressed in HEK293 cells assessed as effect on Pin1-Jun interaction complexes by EYFP and/or YFP Venus fragment based reporter gene assay"}, "HEK293 [12]": {"test_system": "HEK293", "assay": "Inhibition of proteasome expressed in HEK293 cells assessed as effect on E6:E6AP interaction complexes by EYFP and/or YFP Venus fragment based reporter gene assay"}, "Cofilin-1 (Homo sapiens) [13]": {"biological_target": "Cofilin-1 (Homo sapiens) (UniProt P23528)", "assay": "Effect on cofilin1 expressed in HEK293 cells assessed as effect on cofilin1; Limk2 interaction complexes by EYFP and/or YFP Venus fragment based reporter gene assay", "format": "cell-based"}, "PC-3 [14]": {"test_system": "PC-3", "assay": "Antiproliferative activity against human PC3 cells at 1 uM after 120 hrs by MTT assay relative to DMSO", "format": "functional"}, "HEK293 [15]": {"test_system": "HEK293", "assay": "Inhibition of proteasome expressed in HEK293 cells assessed as effect on p53-p53 interaction complexes by EYFP and/or YFP Venus fragment based reporter gene assay"}, "HEK293 [16]": {"test_system": "HEK293", "assay": "Inhibition of proteasome expressed in HEK293 cells assessed as effect on CyclinD1-CDK4 interaction complexes by EYFP and/or YFP Venus fragment based reporter gene assay"}, "PC-3 [17]": {"test_system": "PC-3", "assay": "Antiproliferative activity against human PC3 cells at 250 nM after 120 hrs by MTT assay relative to DMSO", "format": "functional"}, "Cofilin-1 (Homo sapiens) [18]": {"biological_target": "Cofilin-1 (Homo sapiens) (UniProt P23528)", "assay": "Inhibition of cofilin1 expressed in HEK293 cells assessed as effect on cofilin1; Limk2 interaction complexes by EYFP and/or YFP Venus fragment based reporter gene assay", "format": "cell-based"}, "PC-3 [19]": {"test_system": "PC-3", "assay": "Antiproliferative activity against human PC3 cells at 10 uM after 120 hrs by MTT assay relative to DMSO", "format": "functional"}, "PC-3 [20]": {"test_system": "PC-3", "assay": "Antiproliferative activity against human PC3 cells at 5 uM after 120 hrs by MTT assay relative to DMSO", "format": "functional"}, "HEK293 [21]": {"test_system": "HEK293", "assay": "Inhibition of HSP90 expressed in HEK293 cells assessed as effect on Akt1:p27 interaction complexes by EYFP and/or YFP Venus fragment based reporter gene assay", "format": "cell-based"}, "PC-3 [22]": {"test_system": "PC-3", "assay": "Antiproliferative activity against human PC3 cells at 15 uM after 120 hrs by MTT assay relative to DMSO", "format": "functional"}, "PC-3 [23]": {"test_system": "PC-3", "assay": "Antiproliferative activity against human PC3 cells at 12.5 uM after 120 hrs by MTT assay relative to DMSO", "format": "functional"}, "PC-3 [24]": {"test_system": "PC-3", "assay": "Antiproliferative activity against human PC3 cells at 10 ng/ml after 120 hrs by MTT assay relative to DMSO", "format": "functional"}, "PC-3 [25]": {"test_system": "PC-3", "assay": "Antiproliferative activity against human PC3 cells at 3 uM after 120 hrs by MTT assay relative to DMSO", "format": "functional"}},
  "note": "The source made the active and inactive calls. The calls are words filed in the database; no cut-off is given here. Residues, ends and D or L forms follow the SMILES beside them. *: point of attachment. Cbz = O=C(OCc1ccccc1)*",
  "data": [
    {"smiles": "Cc1[nH]c(=O)c(C#N)cc1-c1ccncc1", "note": "[MILRINONE]", "values": [
      {"measurement": "fold change (FC)", "setting": "PC-3 [1]", "value": 1.015}
    ]},
    {"smiles": "COc1cccc(-c2cc(=O)c3ccccc3o2)c1N", "values": [
      {"measurement": "fold change (FC)", "setting": "PC-3 [2]", "value": 0.901}
    ]},
    {"smiles": "CC[C@H](C)[C@H](NC(=O)[C@H](Cc1ccc(O)cc1)NC(=O)[C@@H](NC(=O)[C@H](CCCNC(=N)N)NC(=O)[C@@H](N)CC(=O)O)C(C)C)C(=O)N[C@@H](Cc1cnc[nH]1)C(=O)N1CCC[C@H]1C(=O)N[C@@H](Cc1ccccc1)C(=O)O", "note": "[ANGIOTENSIN II]", "values": [
      {"measurement": "fold change (FC)", "setting": "PC-3 [3]", "value": 1.018}
    ]},
    {"smiles": "CC(C)OC(=O)C(C)(C)Oc1ccc(C(=O)c2ccc(Cl)cc2)cc1", "values": [
      {"measurement": "Activity", "setting": "[4]", "value": "Active"},
      {"measurement": "Activity", "setting": "Cofilin-1 (Homo sapiens) [5]", "value": "Active"},
      {"measurement": "Activity", "setting": "[6]", "value": "Active"},
      {"measurement": "inhibition", "setting": "[7]", "value": "Active"},
      {"measurement": "Activity", "setting": "[8]", "value": "Active"},
      {"measurement": "Activity", "setting": "[9]", "value": "Active"}
    ]},
    {"smiles": "CC(C)C[C@@H](C=O)NC(=O)[C@H](CC(C)C)NC(=O)[C@H](CC(C)C)NC(=O)OCc1ccccc1", "note": "[MG-132] (Cbz-Leu-Leu-Leu-aldehyde)", "values": [
      {"measurement": "inhibition", "setting": "HEK293 [10]", "value": "Active"},
      {"measurement": "inhibition", "setting": "HEK293 [11]", "value": "Active"},
      {"measurement": "inhibition", "setting": "HEK293 [12]", "value": "Active"},
      {"measurement": "Activity", "setting": "Cofilin-1 (Homo sapiens) [13]", "value": "Active"},
      {"measurement": "fold change (FC)", "setting": "PC-3 [14]", "value": 0.255},
      {"measurement": "inhibition", "setting": "HEK293 [15]", "value": "Active"},
      {"measurement": "inhibition", "setting": "HEK293 [16]", "value": "Active"}
    ]},
    {"smiles": "C=C(C)[C@H]1Cc2c(ccc3c2O[C@@H]2COc4cc(OC)c(OC)cc4[C@@H]2C3=O)O1", "note": "[ROTENONE]", "values": [
      {"measurement": "Activity", "setting": "[4]", "value": "Active"},
      {"measurement": "Activity", "setting": "Cofilin-1 (Homo sapiens) [5]", "value": "Active"},
      {"measurement": "Activity", "setting": "[6]", "value": "Active"},
      {"measurement": "Activity", "setting": "[9]", "value": "Active"},
      {"measurement": "fold change (FC)", "setting": "PC-3 [3]", "value": 0.548}
    ]},
    {"smiles": "CO[C@H]1C[C@@H]2CC[C@@H](C)[C@@](O)(O2)C(=O)C(=O)N2CCCC[C@H]2C(=O)O[C@H]([C@H](C)C[C@@H]2CC[C@@H](O)[C@H](OC)C2)CC(=O)[C@H](C)/C=C(\\C)[C@@H](O)[C@@H](OC)C(=O)[C@H](C)C[C@H](C)/C=C/C=C/C=C/1C", "note": "[SIROLIMUS]", "values": [
      {"measurement": "fold change (FC)", "setting": "PC-3 [17]", "value": 0.401}
    ]},
    {"smiles": "CN[C@H]1CC[C@@H](c2ccc(Cl)c(Cl)c2)c2ccccc21", "note": "[SERTRALINE]", "values": [
      {"measurement": "inhibition", "setting": "Cofilin-1 (Homo sapiens) [18]", "value": "Active"},
      {"measurement": "Activity", "setting": "[4]", "value": "Active"},
      {"measurement": "Activity", "setting": "Cofilin-1 (Homo sapiens) [5]", "value": "Active"},
      {"measurement": "Activity", "setting": "[6]", "value": "Active"},
      {"measurement": "Activity", "setting": "[9]", "value": "Active"},
      {"measurement": "fold change (FC)", "setting": "PC-3 [19]", "value": 0.226}
    ]},
    {"smiles": "C=CCNC1=C2C[C@@H](C)C[C@H](OC)[C@H](O)[C@@H](C)/C=C(\\C)[C@H](OC(N)=O)[C@@H](OC)/C=C\\C=C(/C)C(=O)NC(=CC1=O)C2=O", "note": "(stereo in doubt) [TANESPIMYCIN]", "values": [
      {"measurement": "fold change (FC)", "setting": "PC-3 [20]", "value": 0.264},
      {"measurement": "inhibition", "setting": "HEK293 [21]", "value": "Active"}
    ]},
    {"smiles": "O=C1CCC(N2C(=O)c3ccccc3C2=O)C(=O)N1", "note": "(stereo not given) [THALIDOMIDE]", "values": [
      {"measurement": "fold change (FC)", "setting": "PC-3 [17]", "value": 0.992}
    ]},
    {"smiles": "CN(CCOc1ccc(CC2SC(=O)NC2=O)cc1)c1ccccn1", "note": "(stereo not given) [ROSIGLITAZONE]", "values": [
      {"measurement": "fold change (FC)", "setting": "PC-3 [22]", "value": 0.925}
    ]},
    {"smiles": "O=c1c(-c2ccc(O)cc2)coc2cc(O)cc(O)c12", "note": "[GENISTEIN]", "values": [
      {"measurement": "fold change (FC)", "setting": "PC-3 [23]", "value": 1.074}
    ]},
    {"smiles": "CCC(=C/[C@H](C)C/C=C/C(C)=C/[C@@H](C)C(=O)[C@@H](C)[C@H](O)[C@@H](C)C/C(C)=C/C(=O)O)/C=C/[C@@H]1OC(=O)C=C[C@@H]1C", "note": "[LEPTOMYCIN B]", "values": [
      {"measurement": "fold change (FC)", "setting": "PC-3 [24]", "value": 0.262}
    ]},
    {"smiles": "CN(CCOc1ccc(C[C@H](Nc2ccccc2C(=O)c2ccccc2)C(=O)O)cc1)c1ccccn1", "values": [
      {"measurement": "fold change (FC)", "setting": "PC-3 [25]", "value": 0.956}
    ]}
  ]
}
